Measurements taken from patent publication US8604207B2, “Nitrogenous heterocyclic derivative and medicine containing the same as an active ingredient” (Ono Pharmaceutical Co., Ltd., priority 2004, dated 2013).
pIC50: −log10 of the molar value. Structures can show the parent of a compound that is named as a salt.

How the values were obtained:
[1] = test system: human cultured PBMC; assay: Cell migration test (in vitro, human MIP-1β-induced migration of human cultured PBMC); type: cell-based; conditions: human MIP-1β in lower well, incubated 1.5 hours, average value (n=3), read-out: IC50 value, inhibitory activity against human MIP-1β-induced cell migration of human cultured PBMC
Method: Preparation of PBMC (Peripheral Blood Mononuclear Cell)
Human venous blood (50 mL) collected by using syringe with heparin sodium (final concentration: 10 U/mL, heparin sodium injection 1000 U/mL, Shimizu Pharmaceutical Co., Ltd.) was stored into 50 mL of conical tube made by polypropylene. To a Lymphoprep tube (HYCOMED PHARMA, Cat. No 1019818), 16.5 mL of DPBS (−) (GIBCO, Cat No. 14190-136) and a blood sample were added, jiggled several times, then centrifuged at 3000 rpm for 10 minutes at room temperature. […]
50 μL of 5×10^5 cells of the human PBMC suspension (culture medium) and 50 μL of the solution of the test compound (0-2 μmol/L: double concentration of a final concentration) were added to an upper well of transwell (coster), and 300 μL of 60 nmol/L of the human MIP-1β (Pepro tech, Cat. No. 300-09) and 300 μL of a double concentration of the solution of the test compound were added to a lower well. […] 100 μL of the solution was transferred to white 96 well plate for fluorescence from lower well by pipetting, an amount of cells was measured by using Celltiter Glo (Promega) (a measurement of ATP), Cell migration inhibition ratio was calculated by the following calculating formula. The value of IC50 was calculated from cell migration inhibition ratio of each concentration. […]

[2] = Stability test in liver microsome of monkey; conditions: liver microsome of monkey 1 mg/mL, test compound 5 μmol/L, 30 minutes at 37° C.

Compound	pIC50 [1]	residual ratio of the unmetabolite [2]
CS(=O)(=O)Nc1ccc(Oc2ccc(CN3CCC(N(C(=O)Nc4ccc(F)cc4)c4ccsc4)CC3)cn2)cc1 [Example 7(29), N-(4-{[5-({4-[{[(4-fluorophenyl)amino]carbonyl}(3-thienyl)amino]-1-piperidinyl}methyl)-2-pyridinyl]oxy}phenyl)methanesulfonamide hydrochloride (or dihydrochloride)]	8.92	–
CC(=O)Nc1cc(NC(=O)N(c2ccccc2)C2CCN(Cc3ccc(Oc4ccc(NS(C)(=O)=O)cc4)nc3)CC2)ccc1F [Example 7(83), N-[2-fluoro-5-({[{1-[(6-{4-[(methylsulfonyl)amino]phenoxy}-3-pyridinyl)methyl]-4-piperidinyl}(phenyl)amino]carbonyl}amino)phenyl]acetamide hydrochloride (or dihydrochloride)]	–	88%
